Experimental data: patent US5093231A, “Substrate composition for alkaline phosphatase and method for assay using same” (Becton, Dickinson and Company, priority 1991, dated 1992)
Blank lines part the entries; values can stand above or below the compound they belong to.

Experiments:
[1] = test system: bovine liver alkaline phosphatase; experiment: Potency of the p-bromo analogue relative to levamisole as AP inhibitor; assay type: biochemical
[2] = Accelerated stability of levamisole (and its p-bromo analogue) in various buffers; functional amount measured by inhibition of bovine liver AP; details: pH 9.8
Experimental: (§1) Various buffers were prepared at 100 mM concentrations, containing 1 mM magnesium chloride, and adjusted to pH 9.8. […] (accelerated decomposition study). […] Bovine liver AP was added and the reaction kinetics were followed at 405 nm.

[3] = test system: bovine liver alkaline phosphatase; experiment: as above; details: for Percent of Functional Levamisole Remaining: Day 0
Experimental: as §1

[4] = cited from earlier work
AP from the intestine = details: Van Belle, Biochim. et Biophys. Acta., 289, 158 (1972); cited from earlier work

fold more potent than levamisole [1]: approximately 10 fold
remaining at 72 h, 100 µM ([2]; amp buffer): 55.4%
remaining at 216 h, 100 µM ([2]; amp buffer): 23.9%
remaining at 408 h, 100 µM ([2]; amp buffer): 9.6%
remaining at 72 h, 100 µM ([2]; ampd buffer): 74%
remaining at 216 h, 100 µM ([2]; ampd buffer): 37.3%
remaining at 408 h, 100 µM ([2]; ampd buffer): 18.5%
remaining at 72 h, 100 µM ([2]; carbonate buffer): 44.4%
remaining at 216 h, 100 µM ([2]; carbonate buffer): 10.8%
remaining at 408 h, 100 µM ([2]; carbonate buffer): 2.62%
remaining at 72 h, 100 µM ([2]; diethanolamine buffer): 33.6%
remaining at 216 h, 100 µM ([2]; diethanolamine buffer): 1.3%
remaining at 408 h, 100 µM ([2]; diethanolamine buffer): 0.53%
remaining at 72 h, 100 µM ([2]; glycine buffer): 0.29%
remaining at 216 h, 100 µM ([2]; glycine buffer): 0.25%
remaining at 408 h, 100 µM ([2]; glycine buffer): 0%
remaining at 72 h, 100 µM ([2]; triethanolamine buffer): 59%
remaining at 216 h, 100 µM ([2]; triethanolamine buffer): 22.1%
remaining at 408 h, 100 µM ([2]; triethanolamine buffer): 7.86%
Percent of Functional Levamisole Remaining ([3]; AMP buffer, as in Example I (pH 9.8, 45° C.), 0.1 mM p-bromolevamisole): 100%
Percent of Functional Levamisole Remaining ([3]; AMPD buffer, as in Example I (pH 9.8, 45° C.), 0.1 mM p-bromolevamisole): 100%
Percent of Functional Levamisole Remaining ([3]; Carbonate buffer, as in Example I (pH 9.8, 45° C.), 0.1 mM p-bromolevamisole): 100%
Percent of Functional Levamisole Remaining ([3]; Diethanolamine buffer, as in Example I (pH 9.8, 45° C.), 0.1 mM p-bromolevamisole): 100%
Percent of Functional Levamisole Remaining ([3]; Glycine buffer, as in Example I (pH 9.8, 45° C.), 0.1 mM p-bromolevamisole): 100%
Percent of Functional Levamisole Remaining ([3]; Triethanolamine buffer, as in Example I (pH 9.8, 45° C.), 0.1 mM p-bromolevamisole): 100%
Structure (SMILES): Brc1ccc([C@H]2CN3CCSC3=N2)cc1 [p-bromolevamisole]
decomposition compared with the parent compound levamisole ([3]; pH 9.8, 45° C., summary of Table II): quite a bit faster than the parent compound

Structure (SMILES): c1ccc([C@H]2CN3CCSC3=N2)cc1 [levamisole, (-)2,3,5,6-tetrahydro-6-phenylimidazo[1,2-b]thiazole]
decomposition rate at pH 7.9 relative to pH 2 ([4]; elevated temperature, Dickinson et al., Analyst, 96, 248 (1971)): 70 times
pH of solution at which levamisole hydrolyzes ([4]; in solution): ≥ 4
fold less potent toward AP from the intestine than toward AP from several mammalian tissue types (AP from the intestine): approximately 100 fold
remaining at 72 h, 1000 µM ([2]; amp buffer): 118%
remaining at 216 h, 1000 µM ([2]; amp buffer): 107%
remaining at 408 h, 1000 µM ([2]; amp buffer): 87.1%
remaining at 72 h, 1000 µM ([2]; ampd buffer): 110%
remaining at 216 h, 1000 µM ([2]; ampd buffer): 90.2%
remaining at 408 h, 1000 µM ([2]; ampd buffer): 71.7%
remaining at 72 h, 1000 µM ([2]; carbonate buffer): 63.8%
remaining at 216 h, 1000 µM ([2]; carbonate buffer): 32.1%
remaining at 408 h, 1000 µM ([2]; carbonate buffer): 13.7%
remaining at 72 h, 1000 µM ([2]; diethanolamine buffer): 79.8%
remaining at 216 h, 1000 µM ([2]; diethanolamine buffer): 9.12%
remaining at 408 h, 1000 µM ([2]; diethanolamine buffer): 0.31%
remaining at 72 h, 1000 µM ([2]; glycine buffer): 0.08%
remaining at 216 h, 1000 µM ([2]; glycine buffer): 0.02%
remaining at 408 h, 1000 µM ([2]; glycine buffer): 0%
remaining at 72 h, 1000 µM ([2]; triethanolamine buffer): 94.4%
remaining at 216 h, 1000 µM ([2]; triethanolamine buffer): 66.6%
remaining at 408 h, 1000 µM ([2]; triethanolamine buffer): 37.6%
Percent of Functional Levamisole Remaining ([3]; AMP buffer 100 mM, 1 mM magnesium chloride, pH 9.8, 45° C., 1 mM levamisole): 100%
Percent of Functional Levamisole Remaining ([3]; AMPD buffer 100 mM, 1 mM magnesium chloride, pH 9.8, 45° C., 1 mM levamisole): 100%
Percent of Functional Levamisole Remaining ([3]; Carbonate buffer 100 mM, 1 mM magnesium chloride, pH 9.8, 45° C., 1 mM levamisole): 100%
Percent of Functional Levamisole Remaining ([3]; Diethanolamine buffer 100 mM, 1 mM magnesium chloride, pH 9.8, 45° C., 1 mM levamisole): 100%
Percent of Functional Levamisole Remaining ([3]; Glycine buffer 100 mM, 1 mM magnesium chloride, pH 9.8, 45° C., 1 mM levamisole): 100%
Percent of Functional Levamisole Remaining ([3]; Triethanolamine buffer 100 mM, 1 mM magnesium chloride, pH 9.8, 45° C., 1 mM levamisole): 100%
stability of levamisole compared between buffers ([3]; pH 9.8, 45° C., summary of Table I): substantially greater in AMPD and particularly in AMP than in other buffers
